Patent US10047105B2, “Gyrase inhibitors” (Merck Sharp & Dohme Corp., priority 2009, dated 2018)

Key:
S. aureus ATCC 13709 = assay: MIC, antibacterial potency, S. aureus; assay type: cell-based; settings: S. aureus (SA); in µg/mL
S. pneumoniae ATCC 51916 = assay: MIC, S. pneumoniae; assay type: cell-based; settings: S. pneumoniae (Spn52); in µg/mL

Row | SMILES | MIC, SA (S. aureus ATCC 13709) | MIC Spn52 (S. pneumoniae ATCC 51916)
1 | CCc1[nH]c2nc(Sc3ccc4c(N)nc(CN5CCC(N)CC5)nc4c3)nc(N3CC[C@@H](N)C3)c2c1Cl [700,846] | >64 | >64
2 | CCc1[nH]c2nc(Sc3cc(F)cc(F)c3C#N)nc(N3CC[C@@H](N)C3)c2c1Cl [700,848] | 64 | 64
3 | CCc1[nH]c2nc(Sc3cnc4nccnc4c3)nc(N3CCC(c4cccnc4)C3)c2c1Cl (stereo not drawn) [700,851] | <=0.5 | 4
4 | CCc1[nH]c2nc(Sc3ccc4c(N5CC(C6(N)CC6)C5)cc(C(=O)O)nc4c3)nc(N3CC[C@@H](N)C3)c2c1Cl [700,860] | >64 | >64
5 | CCc1[nH]c2nc(Sc3ccc4cc5c(=O)[nH][nH]c(=O)c5nc4c3)nc(N3CC[C@@H](N)C3)c2c1Cl [700,861] | 16 | >64
6 | CCc1[nH]c2nc(Sc3ccc4nc(C)cc(C(N)=O)c4c3)nc(C3CC[C@@H](N)C3)c2c1Cl (stereo partly drawn) [700,862] | >64 | 32
7 | CCc1[nH]c2nc(Sc3cc(Cl)c4c(N)nc(C)nc4c3)nc(N3CC[C@@H](N)C3)c2c1Cl [700,865] | 1 | <=0.5
8 | CCc1[nH]c2nc(Sc3cnc4cccnc4c3)nc(N3CC(Cc4cncnc4)C3)c2c1Cl [700,867] | <=0.5 | 1
9 | CCc1[nH]c2nc(Sc3cnc4nccnc4c3)nc(N3C[C@H](N)C[C@@H]3CO)c2c1Cl [700,868] | >64 | >64
10 | CCc1[nH]c2nc(Sc3cnc4cccnc4c3)nc(N3CC(N)C4(CC4)C3)c2c1Cl (stereo not drawn) [700,869] | 2 | 4
11 | CCc1[nH]c2nc(Sc3cnc4cccnc4c3)nc(N3C[C@@H](N)[C@H](c4ccccc4)C3)c2c1Cl [700,872] | 1 | 2
12 | CCc1[nH]c2nc(Sc3cnc4cccnc4c3)nc(N3C[C@@H](N)[C@@H](C(=O)OC)C3)c2c1Cl [700,873] | 2 | 32
13 | CCc1[nH]c2nc(Cc3cccnc3)nc(Oc3cccc(C#N)c3)c2c1Cl [700,875] | 32 | >32
14 | CCc1[nH]c2nc(Sc3cnc4cccnc4c3)nc(N3CC(C(=O)N4CC(N)C4)C3)c2c1Cl [700,876] | 8 | 8
15 | CCc1[nH]c2nc(Oc3cnc4ccoc4c3)nc(Oc3cnc4ccoc4c3)c2c1Br [700,883] | <=0.5 | <=0.5
16 | CCc1[nH]c2nc(Sc3cnc4nccnc4c3)nc(N3C[C@@H]4[C@H](C3)[C@@]4(N)CN)c2c1Cl [700,884] | 4 | 16
17 | CCc1[nH]c2nc(Sc3cnc4cccnc4c3)nc(N3C[C@@H]4[C@H](C3)[C@@]4(N)CN)c2c1Cl [700,885] | 2 | 4
18 | CCc1[nH]c2nc(Sc3cnc4nccnc4c3)nc(N3CC4C(C3)C4(CN)NCc3ccccc3)c2c1Cl (stereo not drawn) [700,886] | >8 | 8
19 | CCc1[nH]c2nc(Sc3cnc4cccnc4c3)nc(N3CC4C(C3)C4(CN)NCc3ccccc3)c2c1Cl (stereo not drawn) [700,887] | 8 | 4
20 | CCc1[nH]c2nc(Sc3cnc4cccnc4c3)nc(N3CCC(N)(C(=O)N[C@H](CO)C(=O)OC)C3)c2c1Cl (stereo partly drawn) [700,889] | 32 | 32
21 | CCc1[nH]c2nc(Sc3cnc4cccnc4c3)nc(N3C[C@H](C4CCCCC4)[C@@H](N)C3)c2c1Cl [700,890] | 2 | 4
22 | CCc1[nH]c2nc(Oc3cccc(C#N)c3)nc(C(C)=O)c2c1Cl [700,893] | 4 | 8
23 | CCc1[nH]c2nc(Oc3cncnc3)nc(Oc3cncc(C#N)c3)c2c1Cl [700,898] | <=0.5 | 2

Continued, values first:

Row | MIC, SA (S. aureus ATCC 13709) | MIC Spn52 (S. pneumoniae ATCC 51916) | SMILES
24 | 4 | >64 | CCc1[nH]c2nc(Sc3cnc4nccnc4c3)nc(N3CC(NC(=O)C4CNC4)C3)c2c1Cl [700,842]
25 | 64 | >64 | CCc1[nH]c2nc(Sc3ccc4c(N5CC[C@@H](N)C5)cc(C)nc4c3)nc(N3CC[C@@H](N)C3)c2c1Cl [700,843]
26 | 64 | 32 | CCc1[nH]c2nc(Sc3ccc4nnc(C(=O)NCCN5CCCC5)nc4c3)nc(N3CC[C@@H](N)C3)c2c1Cl [700,844]
27 | >64 | >64 | CCc1[nH]c2nc(Sc3ccc4nnc(C(=O)NCC5CCNCC5)nc4c3)nc(N3CC[C@@H](N)C3)c2c1Cl [700,845]
28 | >64 | >64 | CCc1[nH]c2nc(Sc3ccc4c(N)nc(CN5CCNCC5)nc4c3)nc(N3CC[C@@H](N)C3)c2c1Cl [700,847]
29 | 64 | >64 | CCc1[nH]c2nc(Sc3ccc4c(N)n[nH]c4c3)nc(N3CC(N)C3)c2c1Cl [700,850]
30 | 1 | 1 | CCc1[nH]c2nc(Sc3cnc4cccnc4c3)nc(N3CC4CC3CC4N)c2c1Cl (stereo not drawn) [700,857]
31 | 8 | >64 | CCc1[nH]c2nc(Sc3cnc4nccnc4c3)nc(N3CC(CNC(=O)C4CNC4)C3)c2c1Cl [700,858]
32 | 32 | >64 | CCc1[nH]c2nc(Sc3ccc4cc(C(=O)O)c(C(=O)O)nc4c3)nc(N3CC[C@@H](N)C3)c2c1Cl [700,859]
33 | 8 | 8 | CCc1[nH]c2nc(Sc3cc(OC)c4c(N)nc(C)nc4c3)nc(N3CC[C@@H](N)C3)c2c1Cl [700,863]
34 | 4 | 4 | CCc1[nH]c2nc(Sc3cc(F)cc4nc(C)nc(N)c34)nc(N3CC[C@@H](N)C3)c2c1Cl [700,864]
35 | 1 | 8 | CCc1[nH]c2nc(Oc3cncnc3)nc(N(C)C)c2c1Br [700,866]
36 | 64 | 64 | CCc1[nH]c2nc(Sc3cnc4cccnc4c3)nc(N3C[C@H](N)C[C@@H]3CO)c2c1Cl [700,870]
37 | <=0.5 | 2 | CCc1[nH]c2nc(Sc3cnc4cccnc4c3)nc(N3CCC(c4cccnc4)C3)c2c1Cl (stereo not drawn) [700,871]
38 | 2 | 8 | CCc1[nH]c2nc(Oc3cccc(C#N)c3)nc(C3CC3)c2c1Cl [700,874]
39 | 4 | 8 | CCc1[nH]c2nc(Oc3cncnc3)nc(N3CC(N)C3)c2c1Br [700,877]
40 | <=0.5 | <=0.5 | CCc1[nH]c2nc(Oc3cncnc3)nc(Oc3cncc(C#N)c3)c2c1Br [700,878]
41 | >64 | >64 | CCc1[nH]c2nc(Sc3cnc4cccnc4c3)nc(N3CCC(N)(C(=O)N[C@H]4CCOC4=O)C3)c2c1Cl (stereo partly drawn) [700,888]
42 | >64 | >64 | CCc1[nH]c2nc(Sc3cnc4cccnc4c3)nc(N3CCC(N)(C(=O)N[C@H](CO)C(=O)O)C3)c2c1Cl (stereo partly drawn) [700,891]
43 | >64 | >64 | CCc1[nH]c2nc(Oc3cccc(C#N)c3)nc(/C=C\c3cccc(OC)c3)c2c1Cl [700,892]
44 | 32 | 8 | CCc1[nH]c2nc(Sc3cnc4c(NCC5OCCO5)nc(C)nc4c3)nc(N3CC[C@@H](N)C3)c2c1Cl [700,894]
45 | <=0.5 | <=0.5 | CCc1[nH]c2nc(Oc3cncc(C#N)c3)nc(Oc3cncnc3)c2c1Br [700,899]
